Test results as given in patent US20200069691A1, “HETEROCYCLIC COMPOUNDS AS HIV PROTEASE INHIBITORS” (Merck Sharp & Dohme Corp., priority 2016, published 2020).

These compounds were tested against T1, wild-type HIV-1 protease (Human immunodeficiency virus type 1 group M subtype B, UniProt P04585) (assay: Assay for Inhibition of Microbial Expressed HIV Protease (peptide substrate cleavage, LC-MS/MS readout)). Settings: E. coli expressed wild-type HIV-1 protease, mean of at least two independent experiments, read-out: HIV Pr Enzyme HIV1 PR IC50.
T1 construct: Escherichia coli expressed wild-type HIV-1 protease protein
Type: biochemical
Outline: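 E. coli-expressed wild-type HIV-1 protease ([…]) was preincubated with inhibitor 30 min at room temperature in pH 5.5 acetate buffer (100 mM NaCl, 0.1% BSA). Then 400 μM octapeptide substrate was added and reacted 1 h at 30 °C; inhibition came from LC-MS/MS product peak areas, mean of ≥2 experiments.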
For N=C1N[C@](C[C@@H]2CCOC2)(c2ccccc2)C(=O)N1Cc1ccc(C(F)(F)F)c(C(=O)N2Cc3nccnc3C2)c1 [Compound 70, (5R)-3-[3-(5,7-dihydro-6H-pyrrolo[3,4-b]pyrazin-6-ylcarbonyl)-4-(trifluoromethyl)-benzyl]-2-imino-5-phenyl-5-[(3R)-tetrahydrofuran-3-ylmethyl]imidazolidin-4-one], the IC50 was 8.89 nM. Work on COC(=O)N1CCN(C(=O)c2ccnc(CN3C(=N)NC(CCC(C)C)(c4ccccc4)C3=O)c2)CC1 (centres unmarked) [Compound 405, methyl 4-[(2-{[2-imino4-(3-methylbutyl)-5-oxo-4-phenylimidazolidin-1-yl]methyl}pyridin-4-yl)carbonyl]piperazine-1-carboxylate] yielded an IC50 of 81.1 nM. Work on COC(=O)N1CCN(C(=O)c2cccc(CN3C(=N)NC(c4ccc(F)cc4)(c4cccc(-c5cccc(C#N)c5)c4)C3=O)c2)CC1 (centres unmarked) [Compound 234, methyl 4-[(3-{[4-(3′-cyanobiphenyl-3-yl)-4-(4-fluorophenyl)-2-imino-5-oxoimidazolidin-1-yl]methyl}phenyl)-carbonyl]piperazine-1-carboxylate] yielded an IC50 of 14.2 nM. Cc1noc2ccc(-c3ncc4c(n3)CN(C(=O)c3cc(CN5C(=N)N[C@](CCCC(F)(F)F)(c6ccc(F)cc6)C5=O)ccc3C(F)(F)F)C4)cc12 [Compound 64, (5R)-5-(4-fluorophenyl)-2-imino-3-[3-{[2-(3-methyl-1,2-benzisoxazol-5-yl)-5,7-dihydro-6H-pyrrolo[3,4-d]pyrimidin-6-yl]carbonyl}-4-(trifluoromethyl)benzyl]-5-(4,4,4-trifluorobutyl)imidazolidin-4-one] showed an IC50 of 7.09 nM. CC(C)CC1(c2ccccc2)NC(=N)N(Cc2ccc(Cl)c(C(=O)N3Cc4cccnc4C3)c2)C1=O (centres unmarked) [Compound 366, 3-[4-chloro-3-(5,7-dihydro-6H-pyrrolo[3,4-b]pyridin-6-ylcarbonyl)benzyl]-2-imino-5-(2-methylpropyl)-5-phenylimidazolidin-4-one] was tested, and the IC50 was 5.08 nM. CC(C)C[C@]1(c2ccccc2)NC(=N)N([C@H](C)c2cccc(C(=O)N3CCN(C)C(=O)C3)c2)C1=O [Compound 328, 4-[(3-{(1R)-1-[2-imino-4-(2-methylpropyl)-5-oxo-4-phenylimidazolidin-1-yl]ethyl}phenyl)carbonyl]-1-methylpiperazin-2-one] was tested, and the IC50 was 64.8 nM. Compound N=C1NC(c2ccccc2)(c2ccccc2)C(=O)N1Cc1ccc(C(F)(F)F)c(C(=O)N2Cc3cncnc3C2)c1 [Compound 145, 3-[3-(5,7-dihydro-6H-pyrrolo[3,4-d]pyrimidin-6-ylcarbonyl)-4-(trifluoromethyl)benzyl]-2-imino-5,5-diphenylimidazolidin-4-one] has an IC50 of 4.03 nM. C=CCOC(=O)N1CCN(C(=O)c2cc(CN3C(=N)N[C@](CCCC(F)(F)F)(c4ccc(F)cc4)C3=O)ccc2C(F)(F)F)CC1 [Compound 102, prop-2-en-1-yl 4-{[5-{[(4R)-4-(4-fluorophenyl)-2-imino-5-oxo-4-(4,4,4-trifluorobutyl)imidazolidin-1-yl]methyl}-2-(trifluoromethyl)-phenyl]carbonyl} piperazine-1-carboxylate] was tested, and the IC50 was 23.2 nM. Work on CC(C)CC1(c2ccccc2)NC(=N)N(Cc2ccc(Cl)c(C(=O)N3Cc4nccnc4C3)c2)C1=O (centres unmarked) [Compound 365, 3-[4-chloro-3-(5,7-dihydro-6H-pyrrolo[3,4-b]pyrazin-6-ylcarbonyl)benzyl]-2-imino-5-(2-methylpropyl)-5-phenylimidazolidin-4-one] yielded an IC50 of 4.87 nM. N=C1NC(c2ccc(F)cc2)(c2ccc(F)cc2)C(=O)N1Cc1cccc(C(=O)N2Cc3ccccc3C2)c1 [Compound 195, 3-[3-(1,3-dihydro-2H-isoindol-2-ylcarbonyl)benzyl]-5,5-bis(4-fluorophenyl)-2-iminoimidazolidin-4-one] was tested, and the IC50 was 56.9 nM. CS(=O)(=O)N1CCN(C(=O)c2cc(CN3C(=N)N[C@](CCCC(F)(F)F)(c4ccc(F)cc4)C3=O)ccc2C(F)(F)F)CC1 [Compound 92, (5R)-5-(4-fluorophenyl)-2-imino-3-[3-{[4-(methylsulfonyl)piperazin-1-yl]carbonyl}-4-(trifluoromethyl)-benzyl]-5-(4,4,4-trifluorobutyl)-imidazolidin-4-one] gave an IC50 of 17.3 nM. COc1nnc2n1CCN(C(=O)c1cccc(CN3C(=N)NC(c4ccccc4)(c4ccccc4)C3=O)c1)C2 [Compound 340, 2-imino-3-{3-[(3-methoxy-5,6-dihydro[1,2,4]triazolo[4,3-a]pyrazin-7(8H)-yl)carbonyl]benzyl}-5,5-diphenylimidazolidin-4-one] gave an IC50 of 76.4 nM. Compound N#Cc1ncc2c(n1)CN(C(=O)c1ccnc(CN3C(=N)NC(c4ccccc4)(c4ccccc4)C3=O)c1)C2 [Compound 397, 6-({2-[(2-imino-5-oxo-4,4-diphenylimidazolidin-1-yl)methyl]pyridin-4-yl}carbonyl)-6,7-dihydro-5H-pyrrolo[3,4-d]pyrimidine-2-carbonitrile] has an IC50 of 18.1 nM. N=C1NC(c2ccccc2)(c2ccc(-c3ccc(F)cc3)cc2)C(=O)N1Cc1cccc(C(=O)N2Cc3nccnc3C2)c1 (centres unmarked) [Compound 201, 3-[3-(5,7-dihydro-6H-pyrrolo[3,4-b]pyrazin-6-ylcarbonyl)benzyl]-5-(4′-fluorobiphenyl-4-yl)-2-imino-5-phenylimidazolidin-4-one] was tested, and the IC50 was 6.32 nM. Work on CCc1nnc2n1CCN(C(=O)c1cccc(CN3C(=N)NC(c4ccccc4)(c4ccccc4)C3=O)c1)C2 [Compound 356, 3-{3-[(3-ethyl-5,6-dihydro[1,2,4]triazolo[4,3-a]pyrazin-7(8H)-yl)carbonyl]benzyl}-2-imino-5,5-diphenylimidazolidin-4-one] yielded an IC50 of 91.2 nM. N=C1N[C@](CCCC(F)(F)F)(c2ccc(F)cc2)C(=O)N1Cc1ccc(C(F)(F)F)c(C(=O)N2Cc3cnc(-c4cncnc4)nc3C2)c1 [Compound 49, (5R)-5-(4-fluorophenyl)-2-imino-3-{3-[(2-pyrimidin-5-yl-5,7-dihydro-6H-pyrrolo[3,4-d]pyrimidin-6-yl)carbonyl]-4-(trifluoromethyl)-benzyl}-5-(4,4,4-trifluorobutyl)-imidazolidin-4-one] gave an IC50 of 5.43 nM. Work on CC(C)CCC1(c2ccccc2)NC(=N)N(Cc2cccc(C(=O)N3Cc4ccccc4C3)c2)C1=O (centres unmarked) [Compound 204, 3-[3-(1,3-dihydro-2H-isoindol-2-ylcarbonyl)benzyl]-2-imino-5-(3-methylbutyl)-5-phenylimidazolidin-4-one] yielded an IC50 of 7.38 nM. N=C1NC(c2ccccc2)(c2ccccc2)C(=O)N1Cc1cc(C(=O)N2Cc3nccnc3C2)ccn1 [Compound 399, 3-{[4-(5,7-dihydro-6H-pyrrolo[3,4-b]pyrazin-6-ylcarbonyl)pyridin-2-yl]methyl}-2-imino-5,5-diphenylimidazolidin-4-one] was tested, and the IC50 was 20.4 nM. In the case of N=C1N[C@](CCCC(F)(F)F)(c2ccc(F)cc2)C(=O)N1Cc1ccc(C(F)(F)F)c(C(=O)N2Cc3cnc(-c4cccc(C(=O)N5CCSCC5)c4)nc3C2)c1 [Compound 67, (5R)-5-(4-fluorophenyl)-2-imino-3-[3-({2-[3-(thiomorpholin-4-ylcarbonyl)phenyl]-5,7-dihydro-6H-pyrrolo[3,4-d]pyrimidin-6-yl}carbonyl)-4-(trifluoromethyl)-benzyl]-5-(4,4,4-trifluorobutyl)-imidazolidin-4-one], the IC50 is reported as 7.87 nM. In the case of COC(=O)Nc1ncc2c(n1)CN(C(=O)c1cccc(CN3C(=N)NC(CC(C)C)(c4ccccc4)C3=O)c1)C2 (centres unmarked) [Compound 188, methyl {6-[(3-{[2-imino-4-(2-methylpropyl)-5-oxo-4-phenylimidazolidin-1-yl]methyl}phenyl)carbonyl]-6,7-dihydro-5H-pyrrolo[3,4-d]pyrimidin-2-yl}carbamate], the IC50 is reported as 3.78 nM. N=C1NC(c2ccccc2)(c2ccccc2)C(=O)N1Cc1cccc(C(=O)N2CCn3ccnc3C2)c1 [Compound 339, 3-[3-(5,6-dihydroimidazo[1,2-a]pyrazin-7(8H)-ylcarbonyl)benzyl]-2-imino-5,5-diphenylimidazolidin-4-one] was tested, and the IC50 was 75.8 nM. For N=C1NC(C[C@@H]2CCOC2)(c2ccccc2)C(=O)N1Cc1ccc(C(F)(F)F)c(C(=O)N2CCn3c(nnc3C(F)(F)F)C2)c1 (stereo partly drawn) [Compound 105, 2-imino-5-phenyl-5-[(3R)-tetrahydrofuran-3-ylmethyl]-3-[4-(trifluoromethyl)-3-{[3-(trifluoro-methyl)-5,6-dihydro[1,2,4]triazolo-[4,3-a]pyrazin-7(8H)-yl]carbonyl}-benzyl]limidazolidin-4-one], the IC50 was 24.7 nM. Compound CCCC1(c2ccccc2)NC(=N)N(Cc2cccc(C(=O)N3Cc4cnc(C#N)nc4C3)c2)C1=O (centres unmarked) [Compound 243, 6-({3-[(2-imino-5-oxo-4-phenyl-4-propylimidazolidin-1-yl)methyl]phenyl}carbonyl)-6,7-dihydro-5H-pyrrolo[3,4-d]pyrimidine-2-carbonitrile] has an IC50 of 16.7 nM. Work on CCOC(=O)c1cn2c(n1)CN(C(=O)c1cccc(CN3C(=N)NC(c4ccccc4)(c4ccccc4)C3=O)c1)CC2 [Compound 245, ethyl 7-({3-[(2-imino-5-oxo-4,4-diphenylimidazolidin-1-yl)methyl]phenyl}carbonyl)-5,6,7,8-tetrahydroimidazo[1,2-a]pyrazine-2-carboxylate] yielded an IC50 of 17.1 nM. N=C1NC(c2ccc(F)cc2)(c2ccc(F)cc2)C(=O)N1Cc1ccc(Cl)c(C(=O)N2Cc3ccccc3C2)c1 [Compound 375, 3-[4-chloro-3-(1,3-dihydro-2H-isoindol-2-ylcarbonyl)benzyl]-5,5-bis(4-fluorophenyl)-2-iminoimidazolidin-4-one] gave an IC50 of 7.56 nM. Compound CC(C)CC[C@]1(c2ccccc2)NC(=N)N([C@H](C)c2cccc(C(=O)N3Cc4nccnc4C3)c2)C1=O [Compound 217, 3-{(1R)-1-[3-(5,7-dihydro-6H-pyrrolo[3,4-b]pyrazin-6-ylcarbonyl)phenyl]ethyl}-2-imino-5-(3-methylbutyl)-5-phenylimidazolidin-4-one] has an IC50 of 10.3 nM.
